From patent publication US8952024B2, “Herbicidal pyrimidone derivatives” (E I du Pont de Nemours and Company, priority 2009, dated 2015)
Like-named read-outs stand apart in the source and are kept apart here.

Key:
Format in all cases: in vivo
[1] = test system: windgrass (Apera spica-venti); assay: Test B postemergence plant response; conditions: Apera spica-venti, post-emergence, 360 h; Postemergence, 125 g ai/ha; visual rating after 13 to 15 days, scale 0 (no effect) to 100 (complete control)
In short: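 Plants at the 1- to 4-leaf stage (2 to 18 cm tall), grown in pots of peat moss/vermiculite medium with wetting agent and starter nutrients, received postemergence applications of test chemicals. After 13 to 15 days in a greenhouse, injury was rated visually against untreated controls on a 0 (no effect) to 100 (complete control) scale.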

[2] = test system: morningglory (Ipomoea spp.); assay: Test A pre-/postemergence plant response; conditions: Ipomoea, 240 h; for pest or weed control at 125 g/ha: 125 g ai/ha; for pest or weed control at 500 g/ha: 500 g ai/ha
In short: (§1)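 Injury was scored visually after roughly ten days against untreated controls, 0 = no effect, 100 = complete control. Test chemicals in a surfactant-containing non-phytotoxic solvent were sprayed either onto soil preemergence or onto one- to two-leaf, 2–10 cm plants postemergence.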

[3] = test system: large crabgrass (Digitaria sanguinalis); assay: Test A pre-/postemergence plant response; conditions: Digitaria sanguinalis, 240 h; for pest or weed control at 125 g/ha: 125 g ai/ha; for pest or weed control at 500 g/ha: 500 g ai/ha
In short: as §1

[4] = test system: barnyardgrass (Echinochloa crus-galli); assay: Test A pre-/postemergence plant response; conditions: Echinochloa crus-galli, 240 h; for pest or weed control at 125 g/ha: 125 g ai/ha; for pest or weed control at 500 g/ha: 500 g ai/ha
In short: as §1

corn (Zea mays) = assay: Test A pre-/postemergence plant response; conditions: Zea mays, 240 h; for Corn plant response rating (crop injury, 0 = no effect, 100 = complete kill) at 500 g/ha: 500 g ai/ha
In short: as §1

[5] = test system: wheat (Triticum aestivum); assay: Test A pre-/postemergence plant response; conditions: Triticum aestivum, 240 h; for plant injury at 125 g/ha: 125 g ai/ha; for plant injury at 500 g/ha: 500 g ai/ha
In short: as §1

[6] = test system: giant foxtail (Setaria faberii); assay: Test A pre-/postemergence plant response; conditions: Setaria faberi, 240 h; for pest or weed control at 125 g/ha: 125 g ai/ha; for pest or weed control at 500 g/ha: 500 g ai/ha
In short: as §1

[7] = test system: velvetleaf (Abutilon theophrasti); assay: Test A pre-/postemergence plant response; conditions: Abutilon theophrasti, 240 h; for pest or weed control at 125 g/ha: 125 g ai/ha; for pest or weed control at 500 g/ha: 500 g ai/ha
In short: as §1

[8] = test system: pigweed (Amaranthus retroflexus); assay: Test A pre-/postemergence plant response; conditions: Amaranthus retroflexus, 240 h; for pest or weed control at 125 g/ha: 125 g ai/ha; for pest or weed control at 500 g/ha: 500 g ai/ha
In short: as §1

[9] = test system: umbrella sedge (Cyperus difformis); assay: Test B flooded paddy test; conditions: Cyperus difformis, 360 h
In short: (§2)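 Flooded-pot test: water raised to 3 cm above soil when treating, compound put in the water, level unchanged thereafter. Plants were at 2 leaves. Readout after 13 to 15 days, visual, relative to controls; 0 signifies no effect and 100 complete control.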

[10] = test system: barnyardgrass (Echinochloa crus-galli); assay: Test B flooded paddy test; conditions: Echinochloa crus-galli, 360 h
In short: as §2

rice (Oryza sativa) = assay: Test B flooded paddy test; conditions: Oryza sativa
In short: as §2

[11] = test system: ducksalad (Heteranthera limosa); assay: Test B flooded paddy test; conditions: Heteranthera limosa, 360 h
In short: as §2

Compound `Cc1c(F)cccc1-n1c(-c2ccccc2)ncc(C(=O)C2=C(O)CCCC2=O)c1=O` [Compound 47, 3-(3-fluoro-2-methylphenyl)-5-[(2-hydroxy-6-oxo-1-cyclohexen-1-yl)carbonyl]-2-phenyl-4(3H)-pyrimidinone] has a pest or weed control at 125 g/ha [1] of 80%, a pest or weed control at 125 g/ha ([2]; post-emergence, Postemergence, visual injury, 0 to 100 scale (0 no effect, 100 complete control), approx. ten days, read-out: Morningglory plant response rating) of 80% and a pest or weed control at 500 g/ha ([2]; post-emergence, Postemergence, 0 to 100 scale, 0 = no effect, 100 = complete control, approx. ten days, read-out: Plant response rating, Morningglory) of 100%. The pest or weed control at 125 g/ha ([2]; pre-emergence, Preemergence, 0 to 100 scale, 0 = no effect, 100 = complete control, read-out: Plant response rating, Morningglory) was 60%, the pest or weed control at 500 g/ha ([2]; pre-emergence, Preemergence, visual injury, 0 to 100 scale (0 no effect, 100 complete control), approx. ten days, read-out: Plant response rating, Morningglory) was 90% and the pest or weed control at 125 g/ha ([3]; post-emergence, Postemergence, visual injury, 0 to 100 scale (0 no effect, 100 complete control), approx. ten days, read-out: Crabgrass, Large plant response rating) was 90%. For the same compound, the pest or weed control at 500 g/ha ([3]; post-emergence, Postemergence, 0 to 100 scale, 0 = no effect, 100 = complete control, approx. ten days, read-out: Plant response rating, Crabgrass, Large) was 100%, the pest or weed control at 125 g/ha ([3]; pre-emergence, Preemergence, 0 to 100 scale, 0 = no effect, 100 = complete control, read-out: Plant response rating, Crabgrass, Large) was 70% and the pest or weed control at 500 g/ha ([3]; pre-emergence, Preemergence, visual injury, 0 to 100 scale (0 no effect, 100 complete control), approx. ten days, read-out: Plant response rating, Crabgrass, Large) was 100%. It also gave a pest or weed control at 125 g/ha ([4]; post-emergence, Postemergence, visual injury, 0 to 100 scale (0 no effect, 100 complete control), approx. ten days, read-out: Barnyardgrass plant response rating) of 90%, a pest or weed control at 500 g/ha ([4]; post-emergence, Postemergence, 0 to 100 scale, 0 = no effect, 100 = complete control, approx. ten days, read-out: Plant response rating, Barnyardgrass) of 100% and a pest or weed control at 125 g/ha ([4]; pre-emergence, Preemergence, 0 to 100 scale, 0 = no effect, 100 = complete control, read-out: Plant response rating, Barnyardgrass) of 10%. The pest or weed control at 500 g/ha ([4]; pre-emergence, Preemergence, visual injury, 0 to 100 scale (0 no effect, 100 complete control), approx. ten days, read-out: Plant response rating, Barnyardgrass) was 90%, the plant injury at 125 g/ha (corn (Zea mays); post-emergence, Postemergence, 125 g ai/ha, visual injury, 0 to 100 scale (0 no effect, 100 complete control), approx. ten days, read-out: Corn plant response rating) was 0% and the Corn plant response rating (crop injury, 0 = no effect, 100 = complete kill) at 500 g/ha (corn (Zea mays); post-emergence, Postemergence, 0 to 100 scale, 0 = no effect, 100 = complete control, approx. ten days) was 70%. The Corn plant response rating (crop injury, 0 = no effect, 100 = complete kill) at 125 g/ha (corn (Zea mays); pre-emergence, Preemergence, 125 g ai/ha, 0 to 100 scale, 0 = no effect, 100 = complete control) was 0%, the Corn plant response rating (crop injury, 0 = no effect, 100 = complete kill) at 500 g/ha (corn (Zea mays); pre-emergence, Preemergence, visual injury, 0 to 100 scale (0 no effect, 100 complete control), approx. ten days) was 0% and the plant injury at 125 g/ha ([5]; post-emergence, Postemergence, visual injury, 0 to 100 scale (0 no effect, 100 complete control), approx. ten days, read-out: Wheat plant response rating) was 0%. The plant injury at 500 g/ha ([5]; post-emergence, Postemergence, 0 to 100 scale, 0 = no effect, 100 = complete control, approx. ten days, read-out: Plant response rating, Wheat) was 0%, the plant injury at 125 g/ha ([5]; pre-emergence, Preemergence, 0 to 100 scale, 0 = no effect, 100 = complete control, read-out: Plant response rating, Wheat) was 0% and the plant injury at 500 g/ha ([5]; pre-emergence, Preemergence, visual injury, 0 to 100 scale (0 no effect, 100 complete control), approx. ten days, read-out: Plant response rating, Wheat) was 0%. The pest or weed control at 125 g/ha ([6]; post-emergence, Postemergence, visual injury, 0 to 100 scale (0 no effect, 100 complete control), approx. ten days, read-out: Foxtail, Giant plant response rating) was 90%, the pest or weed control at 500 g/ha ([6]; post-emergence, Postemergence, 0 to 100 scale, 0 = no effect, 100 = complete control, approx. ten days, read-out: Plant response rating, Foxtail, Giant) was 100% and the pest or weed control at 125 g/ha ([6]; pre-emergence, Preemergence, 0 to 100 scale, 0 = no effect, 100 = complete control, read-out: Plant response rating, Foxtail, Giant) was 50%. The pest or weed control at 500 g/ha ([6]; pre-emergence, Preemergence, visual injury, 0 to 100 scale (0 no effect, 100 complete control), approx. ten days, read-out: Plant response rating, Foxtail, Giant) was 90%, the pest or weed control at 125 g/ha ([7]; post-emergence, Postemergence, visual injury, 0 to 100 scale (0 no effect, 100 complete control), approx. ten days, read-out: Velvetleaf plant response rating) was 100% and the pest or weed control at 500 g/ha ([7]; post-emergence, Postemergence, 0 to 100 scale, 0 = no effect, 100 = complete control, approx. ten days, read-out: Plant response rating, Velvetleaf) was 100%. The pest or weed control at 125 g/ha ([7]; pre-emergence, Preemergence, 0 to 100 scale, 0 = no effect, 100 = complete control, read-out: Plant response rating, Velvetleaf) was 70%, the pest or weed control at 500 g/ha ([7]; pre-emergence, Preemergence, visual injury, 0 to 100 scale (0 no effect, 100 complete control), approx. ten days, read-out: Plant response rating, Velvetleaf) was 100% and the pest or weed control at 125 g/ha ([8]; post-emergence, Postemergence, visual injury, 0 to 100 scale (0 no effect, 100 complete control), approx. ten days, read-out: Pigweed plant response rating) was 90%. The pest or weed control at 500 g/ha ([8]; post-emergence, Postemergence, 0 to 100 scale, 0 = no effect, 100 = complete control, approx. ten days, read-out: Plant response rating, Pigweed) was 100%, the pest or weed control at 125 g/ha ([8]; pre-emergence, Preemergence, 0 to 100 scale, 0 = no effect, 100 = complete control, read-out: Plant response rating, Pigweed) was 80% and the pest or weed control at 500 g/ha ([8]; pre-emergence, Preemergence, visual injury, 0 to 100 scale (0 no effect, 100 complete control), approx. ten days, read-out: Plant response rating, Pigweed) was 100%. For the same compound, the pest or weed control at 250 g/ha ([9]; 250 g ai/ha, flooded paddy test, visual rating on 0 to 100 scale (0 no effect, 100 complete control) after 13 to 15 days, read-out: Plant response rating, Flood, Sedge, Umbrella) was 85%, the pest or weed control at 62 g/ha ([9]; Flood (flooded paddy test), 62 g ai/ha, scale of 0 to 100 where 0 is no effect and 100 is complete control, 13 to 15 days, read-out: Plant response rating, Sedge, Umbrella) was 70% and the pest or weed control at 250 g/ha ([10]; 250 g ai/ha, flooded paddy test, visual rating on 0 to 100 scale (0 no effect, 100 complete control) after 13 to 15 days, read-out: Plant response rating, Flood, Barnyardgrass) was 20%. For the same compound, the pest or weed control at 62 g/ha ([10]; Flood (flooded paddy test), 62 g ai/ha, scale of 0 to 100 where 0 is no effect and 100 is complete control, 13 to 15 days, read-out: Plant response rating, Barnyardgrass) was 0%, the plant injury at 250 g/ha (rice (Oryza sativa); 250 g ai/ha, flooded paddy test, visual rating on 0 to 100 scale (0 no effect, 100 complete control) after 13 to 15 days, read-out: Plant response rating, Flood, Rice) was 25% and the plant injury at 62 g/ha (rice (Oryza sativa); Flood (flooded paddy test), 62 g ai/ha, scale of 0 to 100 where 0 is no effect and 100 is complete control, 13 to 15 days, read-out: Plant response rating, Rice) was 15%. For the same compound, the pest or weed control at 250 g/ha ([11]; 250 g ai/ha, flooded paddy test, visual rating on 0 to 100 scale (0 no effect, 100 complete control) after 13 to 15 days, read-out: Plant response rating, Flood, Ducksalad) was 95% and the pest or weed control at 62 g/ha ([11]; Flood (flooded paddy test), 62 g ai/ha, scale of 0 to 100 where 0 is no effect and 100 is complete control, 13 to 15 days, read-out: Plant response rating, Ducksalad) was 65%.
